Where two headings read alike, the source gives them in different places.
Legend:
Purified human plasmin = Purified human plasmin (Homo sapiens, UniProt P00747); experiment: in vitro plasmin inhibition assay, IC50 (chromogenic substrate S-2251); format: biochemical; conditions: Table 1; 1.0 nM plasmin, 300 μM substrate, pH 7.5, 30 minute incubation
Procedure: (§1) The ability of the compounds of the present invention to act as inhibitors of thrombin and plasmin catalytic activity was assessed by determining the concentration which inhibited enzyme activity by 50%, (IC50), using the purified human enzymes.
(§2) The buffer used for all assays was HBSA (10 mM HEPES, pH 7.5, 150 mM sodium chloride, 0.1% bovine serum albumin).
(§3) The assay for IC50 determinations was conducted by combining in appropriate wells of a Corning microtiter plate, 50 microliters of HBSA, 50 microliters of the test compound at a specified concentration (covering a broad concentration range) diluted in HBSA (or HBSA alone for Vo (uninhibited velocity) measurement), and 50 microliters of the enzyme diluted in HBSA. Following a 30 minute incubation at ambient temperature, 50 microliters of the substrate at the concentrations specified below, was added to the wells yielding a final total volume of 200 microliters. The initial velocity of chromogenic substrate hydrolysis was measured by the change in absorbance at 405 nm using a Thermo Max® Kinetic Microplate Reader over a 5 minute period in which less than 5% of the added substrate was utilized. The concentration of added inhibitor which caused a 50% decrease in the initial rate of hydrolysis was defined as the IC50 value.
Plasmin catalytic activity was determined using the chromogenic substrate, S-2251 [D-valyl-L-leucyl-L-lysine-p-nirtoanilide dihydrochloride], which was obtained from Kabi Diagnostica. The substrate was made up in deionized water followed by dilution in HBSA prior to the assay in which the final concentration was 300 μM (about 5-times Km). Purified human plasmin was obtained from Enzyme Research Laboratories, Inc. The enzyme was diluted into HBSA prior to assay in which the final concentration was 1.0 nM.

[1] = target: Purified human alpha-thrombin (Homo sapiens, UniProt P00734); experiment: in vitro thrombin inhibition assay, IC50 (chromogenic substrate Pefachrome t-PA); format: biochemical; conditions: Table 1; 0.25 nM thrombin, 300 μM substrate, pH 7.5, 30 minute incubation
Procedure: as §1, §2, §3
Thrombin catalytic activity was determined using the chromogenic substrate Pefachrome t-PA (CH3 SO2 -D-hexahydrotyrosine-glycyl-L-arginine-p-nitroaniline, obtained from Pentapharm Ltd.). The substrate was made up in deionized water followed by dilution in HBSA prior to the assay in which the final concentration was 300 μM (about 10-times Km). Purified human alpha-thrombin was obtained from Enzyme Research Laboratories, Inc. The enzyme was diluted into HBSA prior to the assay in which the final concentration was 0.25 nM.

human alpha-thrombin = human alpha-thrombin (Homo sapiens, UniProt P00734); experiment: Determination of inhibition constant Ki for thrombin (steady state velocities, Pefachrome t-PA); format: biochemical
Procedure: The ability of the compounds of the present invention to act as inhibitors of thrombin catalytic activity was assessed by determining their inhibition constant, Ki.
Enzyme activity was determined using the chromogenic substrate Pefachrome t-PA (CH3 SO2 -D-hexahydrotyrosine-glycyl-L-arginine-p-nitroaniline), obtained from Pentapharm Ltd. The substrate was reconstituted in deionized water prior to use. Purified human alpha-thrombin (3000U/mg specific activity) was obtained from Enzyme Research Laboratories, Inc. The buffer used for all assays was HBSA (10 mM HEPES, pH 7.5, 150 mM sodium chloride, 0.1% bovine serum albumin).
Velocities of chromogenic substrate hydrolysis which occurred over 40 minutes was measured by the change in absorbance at 405 nm using a Thermo Max® Kinetic Microplate Reader.
Ki values were determined for test compounds using the relationships developed by Williams and Morrison, Methods in Enzymology, 63:437 (1979) using steady state velocities (Vs) measured over 40 minutes. The extent of substrate hydrolysis was less than 5% over the course of this assay.
Table 2 below gives the Ki values for selected test compounds.

human plasma = experiment: activated partial thromboplastin time (APTT) in citrated human plasma; format: biochemical; conditions: control clotting time 28.3 sec
Procedure: (§4) The ex Vivo anticoagulant effects of BzlSO2 -Met[S(O2)]-Pro-Arg-al was determined by measuring the prolongation of the activated partial thromboplastin time (APTT) over a broad concentration range of the added inhibitor, using pooled normal human and rat plasma. Fresh frozen citrated pooled normal human plasma was obtained from George King Biomedical, Overland Park, Kans. Pooled normal rat plasma was prepared from citrated whole blood collected from anesthetized rats using standard procedures. The plasma was flash frozen and stored at -80° C. until use. Measurements APTT was made using the Coag-A-Mate RA4 automated coagulometer (General Diagnostics, Organon Technica, Oklahoma City, Okla.) using the Automated APTT reagent (Organon Technica, Durham, N.C.) as the initiator of clotting according to the manufacturer's instructions.
(§5) The assay was conducted by making a series of dilutions of the test compounds in rapidly thawed plasma followed by adding 200 microliters to the wells of the assay carousel.
(§6) The elevation in APTT due to increasing concentration of compound is presented relative to the control clotting time for rat (19.75 sec) and human (28.3 sec) plasma which is set to a value of 1.0.

rat carotid artery = experiment: Rat model of FeCl3-induced platelet-dependent arterial thrombosis; format: in vivo, rat (Male Harlan Sprague Dawley); conditions: for ED50: read-out: ED50 for thrombus prevention
Description: In this model a platelet-rich, occlusive thrombus is formed in a segment of the rat carotid artery treated locally with a fresh solution of FeCl3 absorbed to a piece of filter paper. The FeCl3 is thought to diffuse into the treated segment of artery and causes de-endothelialization of the affected vessel surface. […] The effect of a test compound on the incidence of occlusive thrombus formation following the application of the FeCl3 is monitored by ultrasonic flowtometry and is used as the primary end point. […] Male Harlan Sprague Dawley rats (420-450 g) were acclimated at least 72 hours prior to use and fasted for 12 hours prior to surgery with free access to water. The animals were prepared, anesthetized with Nembutal followed by the insertion of catheters for blood pressure monitoring, drug and anesthesia delivery. The left carotid artery was isolated by making a midline cervical incision followed by blunt dissection and spreading techniques to separate a 2 cm segment of the vessel from the carotid sheath. A silk suture was inserted under the proximal and distal ends of the isolated vessel to provide clearance for the placement of a ultrasonic flow probe (Transonic) around the proximal end of the vessel. The probe was then secured with a stationary arm. […] The test compound was administered as a single intravenous bolus at the doses outlined in Table 3 after placement of the flow probe and 5 minutes prior to the application of the FeCl3 thrombogenic stimulus (t=0). […] Blood pressure, blood flow, heart rate, and respiration were monitored for 60 minutes. The incidence of occlusion (defined as the attainment of zero blood flow) was recorded as the primary end point.

rat plasma = experiment: activated partial thromboplastin time (APTT) in citrated rat plasma; format: biochemical; conditions: control clotting time 19.75 sec
Procedure: as §4, §5, §6

[2] = Table 2, human alpha-thrombin 0.5 nM, steady state velocities over 40 minutes, read-out: Inhibitor Constants (Ki)

Sequence of Purified human plasmin (P00747 581-810 limits assumed): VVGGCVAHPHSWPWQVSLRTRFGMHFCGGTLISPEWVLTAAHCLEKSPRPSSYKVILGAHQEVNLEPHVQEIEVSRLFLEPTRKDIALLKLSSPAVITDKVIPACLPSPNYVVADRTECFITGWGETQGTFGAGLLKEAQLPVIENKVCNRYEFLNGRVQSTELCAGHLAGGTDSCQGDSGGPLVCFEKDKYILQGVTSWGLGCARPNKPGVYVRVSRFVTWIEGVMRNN
Sequence of Purified human plasmin (P00747 97-580 limits assumed): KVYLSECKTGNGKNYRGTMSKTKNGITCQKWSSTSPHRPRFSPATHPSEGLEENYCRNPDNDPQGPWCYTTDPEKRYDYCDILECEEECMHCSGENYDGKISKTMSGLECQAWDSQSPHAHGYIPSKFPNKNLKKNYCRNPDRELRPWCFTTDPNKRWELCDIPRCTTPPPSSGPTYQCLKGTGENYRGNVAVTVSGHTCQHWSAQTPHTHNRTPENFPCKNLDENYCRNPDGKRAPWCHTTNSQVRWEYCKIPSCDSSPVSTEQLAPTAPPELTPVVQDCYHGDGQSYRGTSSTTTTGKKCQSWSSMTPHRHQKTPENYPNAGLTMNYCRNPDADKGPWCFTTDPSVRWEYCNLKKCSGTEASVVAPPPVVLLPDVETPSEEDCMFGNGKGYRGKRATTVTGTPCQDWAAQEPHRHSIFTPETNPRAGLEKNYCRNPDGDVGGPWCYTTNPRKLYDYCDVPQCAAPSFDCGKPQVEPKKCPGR

| Structure (SMILES) | IC50 (Purified human plasmin) | IC50 [1] | further results |
| --- | --- | --- | --- |
| CCCC(CCC)C(=O)N[C@@H](CS(=O)(=O)CC(=O)O)C(=O)N1CCC[C@H]1C(=O)N[C@H](C=O)CCCNC(=N)N [Example 59, N-(2-propylpentanoyl)-S-(carboxymethyl)-L-cysteine sulfone-L-proline-L-argininal] | 220 nM | 1.6 nM | – |
| CCCCS(=O)(=O)N[C@@H](CS(C)(=O)=O)C(=O)N1CCC[C@H]1C(=O)N[C@H](C=O)CCCNC(=N)N [Example 40, N-(1-butanesulfonyl)-S-methyl-L-cysteine Sulfone-L-proline-L-argininal] | > 250 nM | 1.8 nM | – |
| CCCCS(=O)(=O)N[C@@H](CCS(C)(=O)=O)C(=O)N1CCC[C@H]1C(=O)N[C@H](C=O)CCCNC(=N)N [Example 11, N-(1-butanesulfonyl)-L-methioninesulfone-L-proline-L-argininal] | 199 nM | 1.6 nM | – |
| COC(=O)CS(=O)(=O)C[C@H](NS(=O)(=O)c1ccc2ccccc2c1)C(=O)N1CCC[C@H]1C(=O)N[C@H](C=O)CCCNC(=N)N [Example 69, N-(2-naphthylenesulfonyl)-S-(methyl acetate)-L-cysteine sulfone-L-proline-L-argininal] | 61 nM | 0.56 nM | – |
| CS(=O)(=O)C[C@H](NS(=O)(=O)c1ccc2ccccc2c1)C(=O)N1CCC[C@H]1C(=O)N[C@H](C=O)CCCNC(=N)N [Example 46, N-(2-naphthalenesulfonyl)-S-methyl-L-cysteine sulfone-L-proline-L-argininal] | > 250 nM | 1.4 nM | – |
| CS(=O)(=O)CC[C@H](NS(=O)(=O)c1ccc2ccccc2c1)C(=O)N1CCC[C@H]1C(=O)N[C@H](C=O)CCCNC(=N)N [Example 24, N-(2-naphthylenesulfonyl)-L-methionine sulfone-L-proline-L-argininal] | 35 nM | 0.58 nM | Ki (human alpha-thrombin; [2]): 0.135 nM |
| CCCCS(=O)(=O)N[C@@H](CS(=O)(=O)CC(=O)O)C(=O)N1CCC[C@H]1C(=O)N[C@H](C=O)CCCNC(=N)N | 110 nM | 3 nM | – |
| CS(=O)(=O)CC[C@H](NS(=O)(=O)Cc1ccccc1)C(=O)N1CCC[C@H]1C(=O)N[C@H](C=O)CCCNC(=N)N [Example 27, N-benzylsulfonyl-L-methionine sulfone-L-proline-L-argininal] | 86 nM | 1 nM | Ki (human alpha-thrombin; [2]): 1.06 nM; Ki (human alpha-thrombin; Table 4, determined using human alphathrombin (footnote a), read-out: Ki): 1.06 nM; prolongation of APTT (human plasma): prolonged the APTT in a dose dependent manner; incidence of thrombotic occlusion (in words) (rat carotid artery; FeCl3 model, rat, over all doses of Table 3): reduction in the incidence of thrombotic occlusion; ED50 (rat carotid artery; Rattus norvegicus): 0.7 mg/kg; prolongation of APTT (rat plasma): prolonged the APTT in a dose dependent manner |
| N=C(N)NCCC[C@@H](C=O)NC(=O)[C@@H]1CCCN1C(=O)[C@H](CS(=O)(=O)CC(=O)O)NS(=O)(=O)Cc1ccccc1 [Example 56, N-benzylsulfonyl-S-(carboxymethyl)-L-cysteine sulfone-L-proline-L-argininal] | 490 nM | 13 nM | – |
| N=C(N)NCCC[C@@H](C=O)NC(=O)[C@@H]1CCCN1C(=O)[C@H](CSCC(=O)O)NS(=O)(=O)Cc1ccccc1 | 490 nM | 13 nM | – |
| COC(=O)c1ccccc1S(=O)(=O)N[C@@H](CCS(C)(=O)=O)C(=O)N1CCC[C@H]1C(=O)N[C@H](C=O)CCCNC(=N)N [2-CMPhSO2 --Met[S(O2)]--Pro--Arg-al] | 200 nM | 0.81 nM | – |
| CC1CNc2c(cccc2S(=O)(=O)N[C@@H](CCCNC(=N)N)C(=O)N2CC[C@@H](C)C[C@@H]2C(=O)O)C1 (stereo partly drawn) [Argatroban, 2R,4R-4-methyl-1-[N-2-(3-methyl-1,2,3,4-tetrahydro-8-quinolinesulfonyl)-L-argininal]-2-piperdinecarboxylic acid, reference compound] | – | – | ED50 (rat carotid artery; dose that prevents the incidence of complete thrombotic occlusion in 50% of animals tested, FeCl3 model, rat): 3.8 mg/kg |
| CCCC(CCC)C(=O)N[C@@H](CS(=O)(=O)Cc1ccc(C(=O)O)cc1)C(=O)N1CCC[C@H]1C(=O)N[C@H](C=O)CCCNC(=N)N [Example 144, N-2-propylpentylamide-L-cysteine-S-sulfone (p-toluic acid) -L-proline-arginal aldehyde] | 388 nM | 0.742 nM | – |
| CS(=O)(=O)CC[C@H](NS(=O)(=O)NC1CCCCC1)C(=O)N1CCC[C@H]1C(=O)N[C@H](C=O)CCCNC(=N)N [ChxNH--SO2 --Met[S(O2)]--Pro--Arg-al] | 2600 nM | 146 nM | – |
| CS(=O)(=O)CC[C@H](NS(=O)(=O)CC1CCCCC1)C(=O)N1CCC[C@H]1C(=O)N[C@H](C=O)CCCNC(=N)N [Example 18, N-cyclohexylmethanesulfonyl-L-methionine sulfone-L-proline-L-argininal] | 30 nM | 0.66 nM | – |
| CCCC(CCC)C(=O)N[C@@H](CS(C)(=O)=O)C(=O)N1CCC[C@H]1C(=O)N[C@H](C=O)CCCNC(=N)N [Example 43, N-(2-propylpentanoyl)-S-methyl-L-cysteine sulfone-L-proline-L-argininal] | 2800 nM | 5.1 nM | – |
| CS(=O)(=O)C[C@H](NS(=O)(=O)c1cccc2ccccc12)C(=O)N1CCC[C@H]1C(=O)N[C@H](C=O)CCCNC(=N)N [Example 49, N-(1-naphthalenesulfonyl)-S-methyl-L-cysteine sulfone-L-proline-L-argininal] | 250 nM | 3.1 nM | – |
| N=C(N)NCCC[C@@H](C=O)NC(=O)[C@@H]1CCCN1C(=O)[C@H](CS(=O)(=O)Cc1ccc(C(=O)O)cc1)NS(=O)(=O)Cc1ccccc1 [Example 139, N-benzylsulfonamide-L-cysteine-S-sulfone-(p-toluic acid) -L-proline-argininal aldehyde] | 250 to 2500 nM | 1.7 nM | – |
| CS(=O)(=O)CC[C@H](NS(=O)(=O)c1cccc2ccccc12)C(=O)N1CCC[C@H]1C(=O)N[C@H](C=O)CCCNC(=N)N [Example 21, N-(1-naphthylenesulfonyl)-L-methionine sulfone-L-proline-L-argininal] | > 25 nM | 0.78 nM | – |
| CC1(C)[C@@H]2CC[C@@]1(CS(=O)(=O)N[C@@H](CCS(C)(=O)=O)C(=O)N1CCC[C@H]1C(=O)N[C@H](C=O)CCCNC(=N)N)C(=O)C2 [d-Camphor--SO2 --Met[S(O2)]--Pro--Arg-al] | 30 nM | 2.6 nM | – |
| CCCC(CCC)C(=O)N[C@@H](CCS(C)(=O)=O)C(=O)N1CCC[C@H]1C(=O)N[C@H](C=O)CCCNC(=N)N [Example 33, N-(2-propylpentanoyl)-L-methionine sulfone-L-proline-L-argininal] | 500 nM | 5.5 nM | Ki (human alpha-thrombin; [2]): 4 nM |

— US5658939A, “Methionine sulfone and S-substituted cysteine sulfone derivatives as enzyme inhibitors” (Corvas International Inc., priority 1995, dated 1997)
